Reference: PubChem BioAssay (NCI)
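Tested at 5 concentrations; 48 h exposure; 96-well plates; endpoints linearly interpolated, else capped at highest concentration. Definition used: TGI = concentration required for complete inhibition of growth.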

What was measured:
Assay in all cases: NCI anticancer screen, dose series, 48 h
[1] = tested on: UACC-62 melanoma
[2] = tested on: CAKI-1 renal
[3] = tested on: SK-MEL-2 melanoma
[4] = tested on: BT-549 breast
[5] = tested on: DU-145 prostate
[6] = tested on: HL-60(TB) leukemia
[7] = tested on: A549 NSCLC
[8] = tested on: NCI-H522 lung
[9] = tested on: SF-539 CNS
[10] = tested on: PC-3 prostate

Measured: TGI

N#Cc1c(C#N)c(-c2ccco2)n(/N=C/c2ccco2)c1N
> 100 µM: all assays above
